Laboratory results published in paper PMC7825302, “Tetraoctylammonium, a Long Chain Quaternary Ammonium Blocker, Promotes a Noncollapsed, Resting-Like Inactivated State in KcsA” (International Journal of Molecular Sciences, 2021).
One block for each molecule: values may come before it.

What was measured:
W67 KcsA = biological target: T1, W67 KcsA (Streptomyces lividans, UniProt P0A334, W113F/W26F/W68F/W87F); assay: thermal denaturation titration with fitted KD; pH […] (pH […]); effect supported by homo-FRET; format: binding
T1 construct: quadruple mutant KcsA with a single Trp (W67) per subunit, homotetramer, His-tag purified from E. coli, in DDM detergent

KcsA = biological target: T2, KcsA (Streptomyces lividans, UniProt P0A334); assay: thermal denaturation (intrinsic fluorescence) titration with fitted KD; pH […] (pH […]); format: binding
T2 construct: wild-type (WT) KcsA, homotetramer, His-tag purified from E. coli, in DDM detergent
T2 sequence (P0A334 1-160): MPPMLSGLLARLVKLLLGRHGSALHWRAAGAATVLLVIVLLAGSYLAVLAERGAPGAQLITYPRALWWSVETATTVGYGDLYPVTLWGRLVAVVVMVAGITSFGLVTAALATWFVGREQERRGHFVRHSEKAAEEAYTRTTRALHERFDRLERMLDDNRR

[1] = biological target: T3, wild-type KcsA potassium channel (Streptomyces lividans), P0A334; assay: SDS-PAGE; 12% SDS-PAGE of the detergent-solubilised (DDM) channel at room temperature, 10 mM Na+, pH 7.0 and pH 4.0, without or with 1 or 100 µM TOA+; details: remark: other sources report otherwise
T3 chain: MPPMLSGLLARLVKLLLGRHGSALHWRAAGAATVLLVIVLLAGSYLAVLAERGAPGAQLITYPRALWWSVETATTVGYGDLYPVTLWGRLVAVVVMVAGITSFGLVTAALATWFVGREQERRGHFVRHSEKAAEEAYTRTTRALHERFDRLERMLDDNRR

[2] = biological target: the molecule itself; assay: FRET or BRET; homo-FRET among the W67 residues of the subunits, from steady-state and time-resolved fluorescence anisotropy; 5 µM protein in 5 mM DDM, pH 7.0 or pH 4.0, K+ titrated, with or without 100 µM TOA+

Molecule: CCCCCCCC[N+](CCCCCCCC)(CCCCCCCC)CCCCCCCC [tetraoctylammonium]
- Kd (W67 KcsA): 107 nM
- Kd (KcsA): 180 nM

- stoichiometry N [1]: 4
B1: wild-type KcsA potassium channel, P0A334 1-160 (natural protein)
chain: MPPMLSGLLARLVKLLLGRHGSALHWRAAGAATVLLVIVLLAGSYLAVLAERGAPGAQLITYPRALWWSVETATTVGYGDLYPVTLWGRLVAVVVMVAGITSFGLVTAALATWFVGREQERRGHFVRHSEKAAEEAYTRTTRALHERFDRLERMLDDNRR

B2: W67 KcsA (quadruple mutant W26, 68, 87, 113F KcsA with a single tryptophan, W67, per subunit) (natural protein, Streptomyces lividans, UniProt P0A334 1-160, looked up)
chain: MPPMLSGLLARLVKLLLGRHGSALHFRAAGAATVLLVIVLLAGSYLAVLAERGAPGAQLITYPRALWFSVETATTVGYGDLYPVTLFGRLVAVVVMVAGITSFGLVTAALATFFVGREQERRGHFVRHSEKAAEEAYTRTTRALHERFDRLERMLDDNRR
notes: KcsA, prokaryotic K+ channel from Streptomyces lividans, native Trp residues 26, 68, 87 and 113 mutated to Phe; also called KcsA W26, 68, 87, 113F; W67 mutant channel
- binding result [2]: binds
